Source: patent US20030143215A1, “Carbonyl stress-ameliorating agents” (priority 1999, published 2003)

Legend:
[1] = in vitro; Miyata T., J. Am. Soc. Nephrol. 11: 1719-1725, 2000; cited from earlier work
[2] = Incubation of sera with thiol compounds, production of AGE; details: sera from a normal person and patients with diabetes mellitus; a long period was required
Excerpt: As described above, a decrease in concentration of redox coenzymes, such as GSH and NAD (P), is suspected to be the cause of AGE formation because of a decreased elimination of carbonyl compounds. […] Based on this theory, the present inventors tried to directly administer thiol compounds, such as GSH and cystein.

[3] = 400 μM methylglyoxal, 0-8 mM glutathione, PBS(-) pH7.4, 37° C., 0-24 hours; FIG. 1
Procedure: The solutions were incubated at 37° C. Samples were taken after 0, 2, 4, 8, and 24 hours; and 40 μl of 2 M perchlorate, 40 μl of 1% o-phenylenediamine, and 100 μl of 200 μM glyoxal were added to 100 μl of each sample. The mixtures were stirred, and then incubated at 25° C. for one hour.

[4] = Elimination of methylglyoxal from methylglyoxal solutions in the presence of glutathione and glyoxalase I; format: biochemical; details: 400 μM methylglyoxal, 4 mM glutathione, glyoxalase I 8-80 unit/ml, 37° C., 1 hour; FIG. 2
Procedure: PBS(-) solutions were prepared, whose methylglyoxal concentration were 400 μM, glutathione concentration 4 mM, and the concentration of an enzyme having glyoxalase I activity were 8, 16, 40, and 80 unit/ml, respectively. The solutions were incubated at 37° C. A commercially available enzyme (Sigma) derived from yeast was used as the glyoxalase I. Samples were taken after 1 hour, and then methylglyoxal was quantified by the same method as in Example 1.

[5] = Dicarbonyl compound elimination in mixed solutions containing three dicarbonyl compounds; format: biochemical; details: FIG. 4
Procedure: PBS(-) solutions (pH7. 4) were prepared, whose concentrations of glyoxal, methylglyoxal, and 3-deoxyglucosone were all 200 μM, glutathione concentration were 0, 0.5, 1, or 5 mM, and glyoxalase I concentration were 0, 0.05, 0.1, 0.5, 1, or 2 unit/ml.

[6] = Dicarbonyl compound elimination in solutions separately containing each dicarbonyl compound; format: biochemical; details: 100 μM dicarbonyl, glutathione 0-10 mM, glyoxalase I 0-10 unit/ml, 37° C., 1 hour; FIG. 5
Procedure: PBS(-) solutions (pH 7.4) were prepared, whose glyoxal concentration were 100 μM, glutathione concentration 0, 0.1, 1, or 10 mM, and glyoxalase I concentration 0, 0.01, 0.1, 1, or 10 unit/ml. […] The same method was used for methylglyoxal and 3-deoxyglucosone in place of glyoxal.

Molecule	trapping of carbonyl compounds methylglyoxal and glyoxal [1]	production of AGE in sera [2]	also measured
N=C(N)NN [aminoguanidine]	efficiently trap carbonyl compounds		
CCCCNC(=N)NC(=N)N [buformin]	efficiently trap carbonyl compounds		
N[C@@H](CS)C(=O)O [cystein, reference compound]		suppressed the production of AGE	
N[C@@H](CCC(=O)N[C@@H](CS)C(=O)NCC(=O)O)C(=O)O [glutathione]		suppressed the production of AGE	methylglyoxal trapping (residual rate of methylglyoxal) [3]: trapped by glutathione depending on the concentration of glutathione and incubation time
CN(C)C(=N)N=C(N)N [metformin]	efficiently trap carbonyl compounds		
glyoxalase I: commercially available enzyme (Sigma) derived from yeast, lactoyl GSH lyase (EC. 4.4.1.5) (protein, UniProt P50107 1-326, looked up) Glyoxalase I: MSTDSTRYPIQIEKASNDPTLLLNHTCLRVKDPARTVKFYTEHFGMKLLSRKDFEEAKFSLYFLSFPKDDIPKNKNGEPDVFSAHGVLELTHNWGTEKNPDYKINNGNEEPHRGFGHICFSVSDINKTCEELESQGVKFKKRLSEGRQKDIAFALGPDGYWIELITYSREGQEYPKGSVGNKFNHTMIRIKNPTRSLEFYQNVLGMKLLRTSEHESAKFTLYFLGYGVPKTDSVFSCESVLELTHNWGTENDPNFHYHNGNSEPQGYGHICISCDDAGALCKEIEVKYGDKIQWSPKFNQGRMKNIAFLKDPDGYSIEVVPHGLIA			methylglyoxal eliminated [4]: Approximately 99%; concentrations of dicarbonyl compounds in mixed solution ([5]; 200 μM each dicarbonyl, glutathione 0-5 mM, glyoxalase I 0-2 unit/ml, 37° C., 1 hour): Decrease in the concentrations of dicarbonyl compounds was observed; elimination of 3-deoxyglucosone in the mixed solution of three dicarbonyl compounds ([5]; coexistence of methylglyoxal and glyoxal, 200 μM each): decreased; concentrations of dicarbonyl compounds in solutions containing one dicarbonyl compound [6]: concentrations of dicarbonyl compounds decreased
